This is an account of results in EPA's ToxValDB 9.5 (doi:10.2903/j.efsa.2006.65r).

One data set deals with Neomysis kadiakensis. The settings on record: chronic/long-term; duration: 28 days.
The next data set deals with Daphnia magna. Conditions: chronic/long-term; duration: 21 days.
The next data set deals with Pontoscolex corethrurus. Conditions: acute; mortality.
Another data set concerns Bibionidae. Conditions: chronic/long-term.
A further data set relates to Lepomis macrochirus. Conditions: acute, duration: 96 hours.
Another data set concerns Aphidius rhopalosiphi. Put plainly: LR50; higher = less toxic. Conditions: not reported; mortality.
The next data set deals with Apis mellifera. The settings on record: acute, mortality.
A further data set deals with Canidae. Conditions: oral, Dog Other, clinical signs.
The mark [1] stands for this setting: short-term, duration: 5 days, oral, diet, food consumption.

In brackets after ≈: the same amount, converted by molar mass. Several values for one entry are separate records, joined by “and”; a condition that tells them apart may be missing. Equal entries are not always repeated.

As to `N#Cc1nn(-c2c(Cl)cc(C(F)(F)F)cc2Cl)c(N)c1C(F)(F)F` [Fipronil desulfinyl], the NOEL with Colinus virginianus (setting [1]) was found to be 7.12 mg/kg-day.
Consider `N#Cc1nn(-c2c(Cl)cc(C(F)(F)F)cc2Cl)c(N)c1SC(F)(F)F` [Fipronil sulfide], for which the LC50 is 0.0295 µg/mL (≈ 0.07 µM) with Oncorhynchus mykiss (acute, duration: 96 hours, mortality) and greater than 1000 mg/kg in the data set with Pontoscolex corethrurus. Further, the NOEC with Neomysis kadiakensis was 4.6e-06 mg/L; in the data set with Daphnia magna, 0.013 mg/L; in the data set on Bibionidae (duration: 28 days), 0.000117 mg/L and 0.000193 mg/kg. For the same compound, in the data set with Colinus virginianus (setting [1]), the NOEL worked out at 6.98 mg/kg-day.
In the case of `N#Cc1nn(-c2c(Cl)cc(C(F)(F)F)cc2Cl)c(N)c1S(=O)(=O)C(F)(F)F` [Fipronil sulfone], the LC50 in the data set on Pontoscolex corethrurus is greater than 1000 mg/kg; in the data set on Lepomis macrochirus it was 0.025 µg/mL (≈ 0.0552 µM). Moreover, the NOEC in the data set on Bibionidae stood at 6.9e-05 mg/L; with Bibionidae (duration: 28 days), 0.000165 mg/kg. Also, in the data set with Colinus virginianus (setting [1]), the NOEL is 7.83 mg/kg-day.
By NOAEL is commonly meant the highest tested level that showed no adverse finding. In turn, `N#Cc1nn(-c2c(Cl)cc(C(F)(F)F)cc2Cl)c(N)c1S(=O)C(F)(F)F` (centres undefined) [Fipronil] came in with an LR50 in the data set on Aphidius rhopalosiphi of 0.01 g/ha. Further, the LC50 was 0.13 µg/mL (≈ 0.297 µM) in the data set with Cyprinodon variegatus (acute, duration: 96 hours); 0.0852 µg/mL (≈ 0.195 µM) in the data set on Lepomis macrochirus (mortality); greater than 1000 mg/kg in the data set on Tagia sp. (acute, mortality). The NOEC came to 0.006 mg/L in the data set on Cyprinodon variegatus (chronic/long-term, duration: 138 days); 0.015 mg/L in the data set with Oncorhynchus mykiss (chronic/long-term, duration: 90 days); 0.0098 mg/L with Daphnia magna; 0.000193 mg/kg with Bibionidae; 0.000117 mg/L in the data set on Bibionidae (duration: 28 days); 1000 mg/kg in the data set on Tagia sp. (chronic/long-term). Further, the LD50 with Apis mellifera (dermal) was 0.00593 µg/piece; in the data set on Apis mellifera (oral, unspecified) it was 0.00417 µg/piece; in the data set with Rattus norvegicus (acute, oral, M, mortality), 92 mg/kg; with Colinus virginianus (acute, oral, mortality), 11.3 mg/kg. Moreover, the NOAEL in the data set with Rattus norvegicus (chronic, duration: 2 years, clinical signs) turned out to be 0.02 mg/kg-day; in the data set with Rattus norvegicus (developmental, development) it was 0.9 mg/kg-day; in the data set on Rattus norvegicus (subchronic, duration: 90 days, oral, clinical signs), 0.35 mg/kg-day; in the data set on Canidae (chronic, duration: 1 years), 0.35 mg/kg-day; in the data set with Canidae (subchronic, duration: 90 days) it was 0.35 mg/kg-day. Also, the NOEL stood at 2.53 mg/kg-day in the data set on Rattus norvegicus (reproduction developmental, M, reproduction); 0.88 mg/kg-day in the data set with Colinus virginianus (reproduction developmental); 3.77 mg/kg-day in the data set with Colinus virginianus (setting [1]).
